Source: PubChem BioAssay (NCI)
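Five compound concentrations were applied to cells in 96-well plates for 48 hours; endpoints were derived by simple linear interpolation of the resulting dose-response curve. Abbreviation: GI50, concentration required for 50% inhibition of growth. TGI: concentration producing complete growth inhibition.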

Key:
Test in all cases: DTP human tumour cell line panel, 48 h
[1] = system: 786-0 renal
[2] = system: A549 NSCLC
[3] = system: CAKI-1 renal
[4] = system: HOP-62 NSCLC
[5] = system: HOP-92 NSCLC
[6] = system: NCI-H23 lung
[7] = system: NCI/ADR-RES ovarian
[8] = system: PC-3 prostate
[9] = system: SW-620 colon
[10] = system: U251 CNS
[11] = system: UO-31 renal
[12] = system: CCRF-CEM leukemia

SMILES	TGI [1] [µM]	TGI [2] [µM]	TGI [3] [µM]	TGI [4] [µM]	TGI [5] [µM]	TGI [6] [µM]	TGI [7] [µM]	TGI [8] [µM]	TGI [9] [µM]	TGI [10] [µM]	TGI [11] [µM]	TGI [12] [µM]	GI50 [3] [nM]	GI50 [4] [nM]	GI50 [5] [nM]	GI50 [8] [µM]	GI50 [9] [nM]	GI50 [10] [nM]	GI50 [11] [nM]	GI50 [7] [µM]
Cc1ncc(COP(=O)(O)O)c(C)c1O	> 100	> 100	> 100	> 100	> 100	> 100	> 100	> 100	> 100	> 100	> 100	–	–	–	–	–	–	–	–	–
N=C(N)SCCN1CCCCC1	51.5	> 100	72.9	> 100	> 100	> 100	> 100	45.8	> 100	44	> 100	–	–	–	–	–	–	–	–	–
O=C1O/C(=C\C=C\CO)C=C1/C=C/CO	33.7	> 100	28.3	–	–	41.9	89.1	42.5	45.9	> 100	30.8	60.3	–	–	–	–	–	–	–	–
NC(=S)N/N=C1\CC(c2ccccc2)Nc2ccccc21 (stereo not given)	–	–	> 100	–	57.5	> 100	–	–	> 100	> 100	80.7	> 100	–	–	–	–	–	–	–	–
Cc1ccccc1C1CC(=O)CC(c2ccccc2C)C12C(=O)NC(=S)NC2=O (stereo not given)	> 100	> 100	> 100	> 100	> 100	> 100	> 100	70	90.4	> 100	43.2	70.4	–	–	–	–	–	–	–	–
CC(=O)C(N=NC1CCC(S(=O)(=O)NB2N=CS2)CC1)C(=O)Nc1ccccc1C (stereo not given)	–	28.6	46.9	34.7	34.3	28.9	–	–	30	26.6	34	> 100	–	–	–	–	–	–	–	–
CCCCCCCCc1ccc(CCC(N)(CO)CO)cc1	–	–	6.56	3.08	3.53	–	–	3.41	3.08	3.32	3.4	–	2640	1690	1390	1.75	1640	1800	1700	–
CC1(Cc2cc3c(cc2C2(c4ccc([N+](=O)[O-])cc4)OCCO2)OCO3)OCCO1	> 100	> 100	> 100	> 100	–	> 100	> 100	> 100	> 100	> 100	> 100	> 100	–	–	–	–	–	–	–	–
COc1cc(O)c2c(=O)c(OC)c(-c3ccc(OC)c(OC)c3)oc2c1.[Zn+2]	> 100	> 100	> 100	11.4	–	–	> 100	> 100	> 100	–	> 100	–	–	2870	–	9.18	–	–	–	14.9
O=S(=O)([O-])[O-].[Fe+2].[OH2+]c1c(Cl)cc(Cl)cc1/C=N/Nc1ccccn1	1.92	4.14	–	3.56	0.899	2.64	–	–	3.49	2.74	3.13	–	–	–	–	–	–	–	–	–
Cc1cccc(/C=C2/C(=O)Nc3ccccc32)n1	27.3	> 85	37.8	33.3	31.3	28.9	53.2	> 60.9	49.7	> 65.9	30.1	> 85.9	–	–	–	–	–	–	–	–
C[N+]1(C)C/C(=C\c2ccc(O)cc2)C(=O)/C(=C/c2ccc(O)cc2)C1	> 100	> 100	> 100	> 100	> 100	–	–	–	> 100	> 100	> 100	> 100	–	–	–	–	–	–	–	–
CCOc1ccc(N=Nc2ccc(-c3ccc(N=Nc4c(O)ccc5cc(S(=O)(=O)O)cc(S(=O)(=O)O)c45)cc3)cc2)cc1	> 100	> 100	> 100	> 100	> 100	> 100	> 100	> 100	> 100	> 100	> 100	> 100	–	–	–	–	–	–	–	–
CC(=O)Oc1cc(/C=C/c2ccc(O)cc2)cc(OC(C)=O)c1	> 100	> 100	> 100	> 100	> 100	53.9	51.9	> 100	> 100	> 100	> 100	–	–	–	–	–	–	–	–	–
COc1ccc(OC)c([N+](=O)[O-])c1-c1nc2sc(C)c(C)n2c1/C=N/N=C(N)N	> 100	> 100	> 100	> 100	> 100	> 100	> 100	> 100	> 100	> 100	> 100	> 100	–	–	–	–	–	–	–	–
O=C(/C=C/c1ccc(O)cc1)c1cc(-c2cc(CCC(=O)c3ccc(O)cc3O)ccc2O)c(O)cc1O	> 50	> 50	> 50	> 50	> 50	> 50	> 50	> 50	> 50	> 50	> 50	43.6	–	–	–	–	–	–	–	–
CC(=O)c1c(C)cc2cccc(OC3OC(CO)C(O)C(O)C3O)c2c1O (stereo not given) (tested in a mixture with another compound)	> 100	> 100	> 100	> 100	> 100	> 100	> 100	> 100	> 100	> 100	–	> 100	–	–	–	–	–	–	–	–
CC(=O)[C@]12OC(=O)C3=C1[C@H](CC[C@@H]3C)[C@@H](C)C[C@H]2C=C(C)C	15.7	16.8	13	16	7.43	17.9	17.7	21.1	15.3	14.9	15.2	22.6	–	–	–	–	–	–	–	–
